Test results taken from PubChem BioAssay (NCI).
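How tested: cells in 96-well plates exposed to compound for 48 hours at five concentrations. GI50 marks 50% less growth. TGI is the concentration that stops growth completely.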

Experiments:
Test in all cases: NCI-60 cell line screen, 48 h
BT-549 breast = tested on: BT-549 breast
COLO 205 colon = tested on: COLO 205 colon
EKVX NSCLC = tested on: EKVX NSCLC
HCC-2998 colon = tested on: HCC-2998 colon
HL-60(TB) leukemia = tested on: HL-60(TB) leukemia
HS 578T breast = tested on: HS 578T breast
MCF7 breast = tested on: MCF7 breast
SW-620 colon = tested on: SW-620 colon
TK-10 renal = tested on: TK-10 renal
UACC-257 melanoma = tested on: UACC-257 melanoma

| SMILES | TGI (BT-549 breast) | TGI (COLO 205 colon) | TGI (EKVX NSCLC) | TGI (HCC-2998 colon) | TGI (HL-60(TB) leukemia) | TGI (HS 578T breast) | TGI (MCF7 breast) | TGI (SW-620 colon) | TGI (TK-10 renal) | TGI (UACC-257 melanoma) | GI50 (BT-549 breast) | GI50 (COLO 205 colon) | GI50 (EKVX NSCLC) | GI50 (HCC-2998 colon) | GI50 (HL-60(TB) leukemia) | GI50 (HS 578T breast) | GI50 (MCF7 breast) | GI50 (SW-620 colon) | GI50 (TK-10 renal) | GI50 (UACC-257 melanoma) |
| --- | --- | --- | --- | --- | --- | --- | --- | --- | --- | --- | --- | --- | --- | --- | --- | --- | --- | --- | --- | --- |
| COc1cc(/C=C/C(=O)c2c(=O)o[nH][n+]2-c2ccccc2)ccc1[O-] | 7.9 µM | 27.2 µM | 15.9 µM | 6.28 µM | 3.65 µM | 9.6 µM | 13.8 µM | 5.85 µM | 10.5 µM | 12.4 µM | – | – | – | – | – | – | – | – | – | – |
| CCc1c(Cc2cccc3ccccc23)n2c(nc1=O)SCC2OCCO (stereo unspecified) | > 100 µM | > 100 µM | > 100 µM | > 100 µM | > 100 µM | > 100 µM | > 100 µM | > 100 µM | > 100 µM | > 100 µM | – | – | – | – | – | – | – | – | – | – |
| COC(=O)[C@H]1[C@@H](C(C)C)O[C@@H](C(C)C)O[C@H]1C(F)(F)F | > 100 µM | > 100 µM | > 100 µM | > 100 µM | > 100 µM | > 100 µM | > 100 µM | > 100 µM | > 100 µM | > 100 µM | – | – | – | – | – | – | – | – | – | – |
| N#CC(C#N)=C1C(C#N)=C(N)NC12OCCO2 | > 100 µM | > 100 µM | > 100 µM | > 100 µM | > 100 µM | > 100 µM | > 100 µM | > 100 µM | > 100 µM | > 100 µM | – | – | – | – | – | – | – | – | – | – |
| Cc1ccc(S(=O)(=O)NNC(=O)c2cc(C)ccc2NC(=O)C23CC4CC(CC(C4)C2)C3)cc1 | > 100 µM | > 100 µM | > 100 µM | > 100 µM | > 100 µM | > 100 µM | > 100 µM | > 100 µM | > 100 µM | > 100 µM | – | – | – | – | – | – | – | – | – | – |
| COc1ccc2c(c1)C(N)=C(c1ccccc1)C2=O | > 100 µM | > 100 µM | > 100 µM | > 100 µM | > 100 µM | 56.3 µM | > 100 µM | > 100 µM | > 100 µM | > 100 µM | – | – | – | – | – | – | – | – | – | – |
| Clc1ccc(Cc2nc3ccccc3nc2-c2cccc(Br)c2)cc1 | 9.93 µM | 12 µM | 28.9 µM | 3.36 µM | 6.49 µM | 3.57 µM | 11.3 µM | 4.49 µM | 30.4 µM | 7.7 µM | – | – | – | – | – | – | – | – | – | – |
| c1ccc(CCNCc2ccco2)nc1 | > 100 µM | > 100 µM | > 100 µM | > 100 µM | > 100 µM | > 100 µM | > 100 µM | > 100 µM | > 100 µM | > 100 µM | – | – | – | – | – | – | – | – | – | – |
| Cc1ccc(C(=O)O)c(CC2Cc3c(C)cccc3C2=O)c1 (stereo unspecified) | > 100 µM | > 100 µM | > 100 µM | > 100 µM | > 100 µM | > 100 µM | > 100 µM | > 100 µM | > 100 µM | > 100 µM | – | – | – | – | – | – | – | – | – | – |
| CC(=O)O[C@@H]1C[C@@]23C[C@@]24CC[C@H](OC2OCC(O)C(O)C2O)C(C)(C)[C@@H]4CC=C3[C@]2(C)C[C@@H]3OC4(C[C@@H](C)[C@@H]3[C@@]12C)OC(O)[C@@]1(C)O[C@@H]41 (stereo partly specified) | 97.3 µM | 44 µM | > 100 µM | 40.5 µM | 36.4 µM | > 100 µM | > 100 µM | > 100 µM | > 100 µM | 67 µM | – | – | – | – | – | – | – | – | – | – |
| C=C(CCC(C)C1CCC2C3=C(C(=O)CC21C)C1(C)CCC(=O)[C@@H](C)C1CC3=O)C(C)C(=O)O (stereo partly specified) | > 100 µM | > 100 µM | > 100 µM | > 100 µM | 32.6 µM | > 100 µM | > 100 µM | > 100 µM | > 100 µM | > 100 µM | – | – | – | – | – | – | – | – | – | – |
| Cc1cc(/C=C\c2ccc3ccccc3[n+]2C)c(O)c2ncccc12 | 4.63 µM | 4.58 µM | 7.82 µM | 0.593 µM | – | 7.5 µM | – | 2.15 µM | 6.54 µM | 6.59 µM | 0.26 µM | 0.448 µM | 0.671 µM | 0.112 µM | 0.125 µM | 0.681 µM | 0.283 µM | 0.196 µM | 0.814 µM | 1.54 µM |
| O=CC(O)C(O)C(O)C(O)C(=O)NCCCCCCCCCCCCNC(=O)C(O)C(O)C(O)C(O)C=O (stereo unspecified) | > 100 µM | > 100 µM | > 100 µM | > 100 µM | > 100 µM | > 100 µM | > 100 µM | > 100 µM | > 100 µM | > 100 µM | – | – | – | – | – | – | – | – | – | – |
| O=C(CSCC(=O)N/N=C/c1cccs1)N/N=C/c1cccs1 | > 100 µM | – | > 100 µM | > 100 µM | > 100 µM | > 100 µM | > 100 µM | > 100 µM | > 100 µM | > 100 µM | – | – | – | – | – | – | – | – | – | – |
| CC(C)=CCC[C@@H](C)C1=C(Nc2ccccc2Cl)C(O)=C(C)C(=O)C1=O | 36.3 µM | 9.8 µM | 29.7 µM | 31 µM | 2.94 µM | 13.1 µM | > 100 µM | > 56.4 µM | > 100 µM | 27.7 µM | – | – | – | – | – | – | – | – | – | – |
| Cc1ccncc1.F[B-](F)(F)F.[Pt+2].c1ccc(-c2cccc(-c3ccccn3)n2)nc1 | > 78.6 µM | 20.8 µM | > 73.5 µM | 59.5 µM | > 45.7 µM | > 45 µM | 25.7 µM | 42.6 µM | 28.5 µM | 44.5 µM | 13.7 µM | – | – | – | – | – | – | – | – | – |
| CC[N+](C)(CC)CCC(O)(c1ccccc1)c1ccccc1 | > 100 µM | > 100 µM | > 100 µM | > 100 µM | > 100 µM | > 100 µM | > 100 µM | > 100 µM | > 100 µM | > 100 µM | – | – | – | – | – | – | – | – | – | – |
| Cc1ccc(C2=NOC(=O)[C@@H]3CCCC[C@@H]23)cc1 | > 100 µM | > 100 µM | > 100 µM | > 100 µM | > 100 µM | > 100 µM | > 100 µM | > 100 µM | > 100 µM | > 100 µM | – | – | – | – | – | – | – | – | – | – |
| O=[N+]([O-])c1ccc2nc(-c3ccccn3)c(-c3ccccn3)nc2c1 | > 100 µM | > 100 µM | > 100 µM | > 100 µM | > 100 µM | > 100 µM | > 100 µM | > 100 µM | > 100 µM | > 100 µM | – | – | – | – | – | – | – | – | – | – |
| O=C1NC(=O)/C(=C/c2ccc(S(=O)(=O)N/N=C/c3ccc(Cl)cc3)cc2)N1 | > 100 µM | > 100 µM | > 100 µM | > 100 µM | > 100 µM | > 100 µM | > 100 µM | > 100 µM | > 100 µM | > 100 µM | – | – | – | – | – | – | – | – | – | – |
| CN1CCN(c2c(Cl)cc(Cl)c3[nH]c4ccccc4c(=O)c23)CC1 | 31.2 µM | 25.3 µM | 32.6 µM | 19.4 µM | 4.63 µM | 22.6 µM | 15.8 µM | 21.3 µM | 26.2 µM | 22.1 µM | – | – | – | – | – | – | – | – | – | – |
| COc1ccc(N(C)C(=O)N(C)c2ccc([N+](=O)[O-])cc2)cc1 | > 100 µM | – | > 100 µM | > 100 µM | > 100 µM | 41.3 µM | > 100 µM | > 100 µM | 73.3 µM | > 100 µM | – | – | – | – | – | – | – | – | – | – |
| CN(C)/N=C/c1cn(C)c(=O)n(C)c1=O | > 100 µM | > 100 µM | > 100 µM | > 100 µM | > 100 µM | > 100 µM | > 100 µM | > 100 µM | > 100 µM | > 100 µM | – | – | – | – | – | – | – | – | – | – |
| COc1cc2c(cc1OCCCC(=O)Nc1cc(C(=O)Nc3cc(C(=O)Nc4cc(C(=O)NCCCN(C)C)n(C)n4)n(C)n3)n(C)n1)N=CC1CCCN1C2=O (stereo unspecified) | 37.5 µM | > 100 µM | > 100 µM | 93.5 µM | > 100 µM | 79.7 µM | > 100 µM | > 100 µM | 40.7 µM | 40.9 µM | – | – | – | – | – | – | – | – | – | – |
| C(=C\c1cccc(/C=C/c2ccccn2)n1)/c1ccccn1 | 40.9 µM | > 100 µM | > 100 µM | > 100 µM | > 100 µM | 44.3 µM | > 100 µM | > 100 µM | > 100 µM | > 100 µM | – | – | – | – | – | – | – | – | – | – |
| CCOP(=O)(OCC)C(Nc1cccc(F)c1)c1ccccc1 (stereo unspecified) | > 100 µM | > 100 µM | > 100 µM | > 100 µM | 55.3 µM | > 100 µM | > 100 µM | – | > 100 µM | > 100 µM | – | – | – | – | – | – | – | – | – | – |
| CCOC(=O)C1(C(=O)OCC)[C@H](c2ccccc2)C2=NO[C@@H]3CCC[C@H]1[C@H]23 | > 100 µM | > 100 µM | > 100 µM | 60 µM | > 100 µM | > 100 µM | > 100 µM | > 100 µM | > 100 µM | > 100 µM | – | – | – | – | – | – | – | – | – | – |
| CC[N+]1(C)CCC(O)(/C=C/c2ccc(OC)cc2)C(C(=O)/C=C/c2ccc(OC)cc2)C1 (stereo unspecified) | 49.7 µM | 8.08 µM | > 71.1 µM | 46.4 µM | 5.03 µM | > 85 µM | > 42.6 µM | 7.42 µM | 11.6 µM | 42.4 µM | – | – | – | – | – | – | – | – | – | – |
| N=C1N(S(=O)(=O)c2ccccc2)[C@@H](Cc2ccccc2)[C@H](c2ccccc2)C1(c1ccccc1)c1ccccc1 | > 100 µM | > 100 µM | > 100 µM | > 100 µM | > 100 µM | > 100 µM | > 100 µM | > 100 µM | > 100 µM | > 100 µM | – | – | – | – | – | – | – | – | – | – |
| CCNc1ccc2c(c1)Cc1ccccc1-2 | 75.5 µM | > 100 µM | > 100 µM | > 100 µM | > 100 µM | > 100 µM | > 100 µM | > 100 µM | > 100 µM | > 100 µM | – | – | – | – | – | – | – | – | – | – |
